The NIST ThermoML archive (doi:10.1016/j.fluid.2016.02.009)
± gives the expanded uncertainty stated by the source.

Details: Liquid, Vibrating tube method

## COC(C)(C)C [2-methoxy-2-methylpropane]
283.15 K, 100 kPa
  mass density: 750.94 ± 0.3 kg/m3
283.15 K, 5000 kPa
  mass density: 756.29 ± 0.33 kg/m3
283.15 K, 10000 kPa
  mass density: 761.29 ± 0.36 kg/m3
283.15 K, 15000 kPa
  mass density: 765.93 ± 0.4 kg/m3
283.15 K, 20000 kPa
  mass density: 770.32 ± 0.43 kg/m3
283.15 K, 25000 kPa
  mass density: 774.48 ± 0.46 kg/m3
283.15 K, 30000 kPa
  mass density: 778.47 ± 0.49 kg/m3
283.15 K, 35000 kPa
  mass density: 782.29 ± 0.53 kg/m3
283.15 K, 40000 kPa
  mass density: 785.94 ± 0.57 kg/m3
283.15 K, 45000 kPa
  mass density: 789.45 ± 0.6 kg/m3
283.15 K, 50000 kPa
  mass density: 792.86 ± 0.64 kg/m3
283.15 K, 55000 kPa
  mass density: 796.13 ± 0.67 kg/m3
283.15 K, 60000 kPa
  mass density: 799.29 ± 0.7 kg/m3
283.15 K, 65000 kPa
  mass density: 802.37 ± 0.73 kg/m3
288.15 K, 100 kPa
  mass density: 745.79 ± 0.3 kg/m3
288.15 K, 5000 kPa
  mass density: 751.33 ± 0.33 kg/m3
288.15 K, 10000 kPa
  mass density: 756.52 ± 0.36 kg/m3
288.15 K, 15000 kPa
  mass density: 761.32 ± 0.4 kg/m3
288.15 K, 20000 kPa
  mass density: 765.86 ± 0.43 kg/m3
288.15 K, 25000 kPa
  mass density: 770.15 ± 0.47 kg/m3
288.15 K, 30000 kPa
  mass density: 774.24 ± 0.5 kg/m3
288.15 K, 35000 kPa
  mass density: 778.15 ± 0.54 kg/m3
288.15 K, 40000 kPa
  mass density: 781.89 ± 0.57 kg/m3
288.15 K, 45000 kPa
  mass density: 785.49 ± 0.61 kg/m3
288.15 K, 50000 kPa
  mass density: 788.97 ± 0.64 kg/m3
288.15 K, 55000 kPa
  mass density: 792.3 ± 0.68 kg/m3
288.15 K, 60000 kPa
  mass density: 795.55 ± 0.71 kg/m3
288.15 K, 65000 kPa
  mass density: 798.67 ± 0.74 kg/m3
293.15 K, 100 kPa
  mass density: 740.59 ± 0.3 kg/m3
293.15 K, 5000 kPa
  mass density: 746.34 ± 0.33 kg/m3
293.15 K, 10000 kPa
  mass density: 751.7 ± 0.37 kg/m3
293.15 K, 15000 kPa
  mass density: 756.68 ± 0.4 kg/m3
293.15 K, 20000 kPa
  mass density: 761.35 ± 0.44 kg/m3
293.15 K, 25000 kPa
  mass density: 765.77 ± 0.47 kg/m3
293.15 K, 30000 kPa
  mass density: 770.01 ± 0.5 kg/m3
293.15 K, 35000 kPa
  mass density: 774 ± 0.54 kg/m3
293.15 K, 40000 kPa
  mass density: 777.85 ± 0.58 kg/m3
293.15 K, 45000 kPa
  mass density: 781.54 ± 0.62 kg/m3
293.15 K, 50000 kPa
  mass density: 785.09 ± 0.65 kg/m3
293.15 K, 55000 kPa
  mass density: 788.51 ± 0.69 kg/m3
293.15 K, 60000 kPa
  mass density: 791.81 ± 0.72 kg/m3
293.15 K, 65000 kPa
  mass density: 795 ± 0.75 kg/m3
298.15 K, 100 kPa
  mass density: 735.34 ± 0.3 kg/m3
298.15 K, 5000 kPa
  mass density: 741.32 ± 0.33 kg/m3
298.15 K, 10000 kPa
  mass density: 746.89 ± 0.37 kg/m3
298.15 K, 15000 kPa
  mass density: 752.04 ± 0.4 kg/m3
298.15 K, 20000 kPa
  mass density: 756.85 ± 0.44 kg/m3
298.15 K, 25000 kPa
  mass density: 761.42 ± 0.47 kg/m3
298.15 K, 30000 kPa
  mass density: 765.75 ± 0.51 kg/m3
298.15 K, 35000 kPa
  mass density: 769.88 ± 0.55 kg/m3
298.15 K, 40000 kPa
  mass density: 773.81 ± 0.59 kg/m3
298.15 K, 45000 kPa
  mass density: 777.6 ± 0.62 kg/m3
298.15 K, 50000 kPa
  mass density: 781.23 ± 0.66 kg/m3
298.15 K, 55000 kPa
  mass density: 784.71 ± 0.69 kg/m3
298.15 K, 60000 kPa
  mass density: 788.1 ± 0.73 kg/m3
298.15 K, 65000 kPa
  mass density: 791.36 ± 0.76 kg/m3
303.15 K, 100 kPa
  mass density: 730.04 ± 0.3 kg/m3
303.15 K, 5000 kPa
  mass density: 736.27 ± 0.33 kg/m3
303.15 K, 10000 kPa
  mass density: 742.05 ± 0.37 kg/m3
303.15 K, 15000 kPa
  mass density: 747.37 ± 0.41 kg/m3
303.15 K, 20000 kPa
  mass density: 752.37 ± 0.44 kg/m3
303.15 K, 25000 kPa
  mass density: 757.05 ± 0.48 kg/m3
303.15 K, 30000 kPa
  mass density: 761.51 ± 0.52 kg/m3
303.15 K, 35000 kPa
  mass density: 765.74 ± 0.56 kg/m3
303.15 K, 40000 kPa
  mass density: 769.79 ± 0.59 kg/m3
303.15 K, 45000 kPa
  mass density: 773.65 ± 0.63 kg/m3
303.15 K, 50000 kPa
  mass density: 777.36 ± 0.67 kg/m3
303.15 K, 55000 kPa
  mass density: 780.95 ± 0.7 kg/m3
303.15 K, 60000 kPa
  mass density: 784.37 ± 0.74 kg/m3
303.15 K, 65000 kPa
  mass density: 787.7 ± 0.77 kg/m3
308.15 K, 100 kPa
  mass density: 724.69 ± 0.3 kg/m3
308.15 K, 5000 kPa
  mass density: 731.19 ± 0.33 kg/m3
308.15 K, 10000 kPa
  mass density: 737.18 ± 0.37 kg/m3
308.15 K, 15000 kPa
  mass density: 742.69 ± 0.41 kg/m3
308.15 K, 20000 kPa
  mass density: 747.84 ± 0.44 kg/m3
308.15 K, 25000 kPa
  mass density: 752.67 ± 0.48 kg/m3
308.15 K, 30000 kPa
  mass density: 757.26 ± 0.52 kg/m3
308.15 K, 35000 kPa
  mass density: 761.6 ± 0.56 kg/m3
308.15 K, 40000 kPa
  mass density: 765.75 ± 0.6 kg/m3
308.15 K, 45000 kPa
  mass density: 769.71 ± 0.64 kg/m3
308.15 K, 50000 kPa
  mass density: 773.49 ± 0.68 kg/m3
308.15 K, 55000 kPa
  mass density: 777.14 ± 0.71 kg/m3
308.15 K, 60000 kPa
  mass density: 780.65 ± 0.75 kg/m3
308.15 K, 65000 kPa
  mass density: 784.04 ± 0.78 kg/m3
313.15 K, 100 kPa
  mass density: 719.29 ± 0.3 kg/m3
313.15 K, 5000 kPa
  mass density: 726.07 ± 0.34 kg/m3
313.15 K, 10000 kPa
  mass density: 732.27 ± 0.37 kg/m3
313.15 K, 15000 kPa
  mass density: 737.97 ± 0.41 kg/m3
313.15 K, 20000 kPa
  mass density: 743.29 ± 0.45 kg/m3
313.15 K, 25000 kPa
  mass density: 748.27 ± 0.48 kg/m3
313.15 K, 30000 kPa
  mass density: 752.99 ± 0.53 kg/m3
313.15 K, 35000 kPa
  mass density: 757.46 ± 0.57 kg/m3
313.15 K, 40000 kPa
  mass density: 761.71 ± 0.61 kg/m3
313.15 K, 45000 kPa
  mass density: 765.77 ± 0.65 kg/m3
313.15 K, 50000 kPa
  mass density: 769.65 ± 0.68 kg/m3
313.15 K, 55000 kPa
  mass density: 773.39 ± 0.72 kg/m3
313.15 K, 60000 kPa
  mass density: 776.97 ± 0.76 kg/m3
313.15 K, 65000 kPa
  mass density: 780.41 ± 0.79 kg/m3
318.15 K, 100 kPa
  mass density: 713.84 ± 0.3 kg/m3
318.15 K, 5000 kPa
  mass density: 720.92 ± 0.34 kg/m3
318.15 K, 10000 kPa
  mass density: 727.36 ± 0.38 kg/m3
318.15 K, 15000 kPa
  mass density: 733.26 ± 0.41 kg/m3
318.15 K, 20000 kPa
  mass density: 738.74 ± 0.45 kg/m3
318.15 K, 25000 kPa
  mass density: 743.91 ± 0.49 kg/m3
318.15 K, 30000 kPa
  mass density: 748.75 ± 0.53 kg/m3
318.15 K, 35000 kPa
  mass density: 753.35 ± 0.57 kg/m3
318.15 K, 40000 kPa
  mass density: 757.7 ± 0.61 kg/m3
318.15 K, 45000 kPa
  mass density: 761.86 ± 0.65 kg/m3
318.15 K, 50000 kPa
  mass density: 765.83 ± 0.69 kg/m3
318.15 K, 55000 kPa
  mass density: 769.63 ± 0.73 kg/m3
318.15 K, 60000 kPa
  mass density: 773.29 ± 0.76 kg/m3
318.15 K, 65000 kPa
  mass density: 776.82 ± 0.8 kg/m3
323.15 K, 100 kPa
  mass density: 708.45 ± 0.3 kg/m3
323.15 K, 5000 kPa
  mass density: 715.73 ± 0.34 kg/m3
323.15 K, 10000 kPa
  mass density: 722.39 ± 0.38 kg/m3
323.15 K, 15000 kPa
  mass density: 728.51 ± 0.42 kg/m3
323.15 K, 20000 kPa
  mass density: 734.2 ± 0.45 kg/m3
323.15 K, 25000 kPa
  mass density: 739.51 ± 0.49 kg/m3
323.15 K, 30000 kPa
  mass density: 744.49 ± 0.54 kg/m3
323.15 K, 35000 kPa
  mass density: 749.2 ± 0.58 kg/m3
323.15 K, 40000 kPa
  mass density: 753.67 ± 0.62 kg/m3
323.15 K, 45000 kPa
  mass density: 757.92 ± 0.66 kg/m3
323.15 K, 50000 kPa
  mass density: 761.98 ± 0.7 kg/m3
323.15 K, 55000 kPa
  mass density: 765.85 ± 0.74 kg/m3
323.15 K, 60000 kPa
  mass density: 769.61 ± 0.77 kg/m3
323.15 K, 65000 kPa
  mass density: 773.22 ± 0.81 kg/m3
